PubChem BioAssay (NCI)
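How tested: cells in 96-well plates exposed to compound for 48 hours at five concentrations. TGI marks complete inhibition of growth.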

Experiments:
Experiment in all cases: NCI anticancer screen, dose series, 48 h
[1] = tested on: M14 melanoma
[2] = tested on: EKVX NSCLC
[3] = tested on: OVCAR-5 ovarian
[4] = tested on: MDA-MB-231 breast
[5] = tested on: T-47D breast
[6] = tested on: ACHN renal
[7] = tested on: CCRF-CEM leukemia
[8] = tested on: UACC-62 melanoma
[9] = tested on: UACC-257 melanoma
[10] = tested on: HL-60(TB) leukemia
[11] = tested on: MCF7 breast
[12] = tested on: DU-145 prostate
[13] = tested on: 786-0 renal
[14] = tested on: SK-MEL-2 melanoma
[15] = tested on: HOP-62 NSCLC
[16] = tested on: NCI-H522 lung
[17] = tested on: K-562 leukemia
[18] = tested on: SK-MEL-28 melanoma
[19] = tested on: HOP-92 NSCLC
[20] = tested on: MDA-N

SMILES | TGI [1] [µM] | TGI [2] [µM] | TGI [3] [µM] | TGI [4] [µM] | TGI [5] [µM] | TGI [6] [µM] | TGI [7] [µM] | TGI [8] [µM] | TGI [9] [µM] | TGI [10] [µM] | TGI [11] [µM] | TGI [12] [µM] | TGI [13] [µM] | TGI [14] [µM] | TGI [15] [µM] | TGI [16] [µM] | TGI [17] [µM] | TGI [18] [µM] | TGI [19] [µM] | TGI [20] [µM]
CC1CCC(=O)C(C(=O)CC2CC(=O)N(C)C(=O)C2)C1 (centres undefined) | > 100 | > 100 | > 100 | > 100 | > 100 | > 100 | > 100 | > 100 | > 100 | > 100 | > 100 | > 100 | > 100 | > 100 | > 100 | > 100 | > 100 | > 100 | > 100 | 
COc1ccc(S(=O)(=O)c2nnc(S(=O)(=O)Cc3ccccc3)s2)cc1 | 33.1 | 57.2 | 54.5 | 62.3 | 91.9 | 30.6 |  |  | 31.4 |  | 60.6 | 33 | 62.1 | 45.1 | 75.5 | 27.1 | > 100 | 40.3 |  | 
COc1ccc(-[n+]2nc(S(=O)(=O)O)c(/C=C/c3ccc(N(C)C)cc3)cc2C#N)cc1 | > 100 | > 100 | > 100 | > 100 | > 100 | > 100 | > 100 | > 100 | > 100 |  | > 100 | > 100 | > 100 | > 100 | > 100 | > 100 | > 100 | > 100 | > 100 | 
Cn1ccc(C(=O)NCCN(CCNC(=O)c2ccn(C)c(=O)c2O)CCNC(=O)c2cccc(=O)n2O)c(O)c1=O | > 100 |  | > 100 | > 100 | > 100 | > 100 | > 100 | > 100 | > 100 | > 100 | > 100 | > 100 | > 100 | > 100 | > 100 | > 100 | > 100 | > 100 | > 100 | 
COC(=O)/C=C(\C)CC(O)/C=C(\C)CCC=C(C)C (centres undefined) | > 100 | > 100 | > 100 | > 100 |  | > 100 | 94.1 | > 100 | > 100 | 46.2 | > 100 |  | > 100 | 73.7 | > 100 |  | > 100 | > 100 | > 100 | > 100
Cn1c(=O)c2c(nc(Cc3ccccc3)n2CC(=O)O)n(C)c1=O | > 100 | > 100 | > 100 | > 100 | > 100 | > 100 | > 100 | > 100 | > 100 |  |  | > 100 | > 100 | > 100 | > 100 | > 100 |  | > 100 | > 100 | > 100
CC(=O)Oc1ccc2c(C)cc(=O)oc2c1OC(C)=O | > 100 | > 100 | > 100 | > 100 |  | > 100 | 83.7 | > 100 | > 100 |  | > 100 | > 100 | > 100 | > 100 | > 100 |  | > 100 | > 100 |  | > 100
Cc1ccc(-n2c(N)c(C#N)c3[nH]nc(N)c3c2=O)cc1 | > 100 | > 100 |  | > 100 | > 100 | > 100 | > 100 | > 100 | > 100 | > 100 | > 100 | > 100 | > 100 | > 100 | > 100 |  | > 100 | > 100 | > 100 | 
N#Cc1c2ccccc2cn1-c1ccc(F)cc1 | > 100 |  | > 100 |  |  | > 100 | > 100 | > 100 | 83.8 | 24.2 |  |  | > 100 |  | > 100 | 43.2 | > 100 | > 100 | 68.5 | 
N#Cc1c(N)n(-c2cccc(C(=O)O)c2)c(=O)c2cc([N+](=O)[O-])ccc12 |  |  |  | > 100 | > 100 | > 100 |  | > 100 | > 100 | > 100 |  | > 100 | > 100 | > 100 |  |  | > 100 | > 100 | > 100 | > 100
S=c1sc2c(Cl)nc(Cl)nc2n1-c1ccccc1 | 43 | > 100 | > 100 |  |  | > 100 | 75.8 | 27.8 | > 100 | 82.6 |  |  | > 100 | > 100 | > 100 | 23.8 | > 100 | 29 | > 100 | 
CC1CCC(C(C)C)C(OC(=O)NCn2cc(-c3ccccc3)nn2)C1 (centres undefined) | > 100 | > 100 | > 100 | > 100 |  | > 100 | > 100 |  | > 100 | > 100 | > 100 | > 100 | > 100 | > 100 | > 100 | > 100 | > 100 | > 100 | > 100 | 
CCCCCCOC(=O)/C=C/[C@]1(CO)C/C(=C/CC(C(C)C)C(C)C)C(=O)O1 | 25.1 | 13.4 | 25.6 |  | 37.5 | 20.7 |  | 27.3 | 31.6 | 23.2 | 30.4 | 37 | 17.6 | 30.7 | 27.6 | 25.9 | 31.2 | 23.2 | 25.4 | 5.35
O=C(Nc1nc(C23CC4CC(CC(C4)C2)C3)cs1)c1cc2ccc(O)cc2oc1=O |  | 43.3 | 48.5 | 48.7 |  | 64.3 | 68.1 |  | 44.1 | 34.6 | 61.3 | > 100 | 23.8 |  | 36.8 | 45.6 | 68.2 | 47 | 15.3 | 41.3
